Laboratory results from patent US6737383B1, “Herbicidal oxadiazolidines” (priority 1999, dated 2004).

Experiments:
blackgrass = test: Test B pre/postemergence blackgrass; type: in vivo, Alopecurus myosuroides
Procedure, shortened: (§1)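 Herbicidal effect was estimated by eye on a ten-point control scale after plants spent twelve to sixteen days in a greenhouse following soil or foliar treatment. Foliar sprays targeted plants at one to four leaves; all doses were formulated in a non-phytotoxic solvent with surfactant.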

velvetleaf = test: Test B pre/postemergence velvetleaf; type: in vivo, Abutilon theophrasti
Procedure, shortened: as §1

crabgrass = test: Test B pre/postemergence crabgrass; type: in vivo, Digitaria sanguinalis
Procedure, shortened: as §1

purple nutsedge = test: Test B pre/postemergence purple nutsedge; type: in vivo, Cyperus rotundus
Procedure, shortened: as §1

bamyardgrass = test: Test B flood test barnyardgrass; type: in vivo, Echinochloa crus-galli
Procedure, shortened: (§2)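 Read-out is a visual response score from 0 (no effect) to 10 (complete control), assigned by comparison with untreated controls. Treatment was applied at the 2-leaf stage, and plants stayed in the greenhouse for twelve to sixteen days before scoring.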

wheat = test: Test B pre/postemergence wheat; type: in vivo, Triticum aestivum
Procedure, shortened: as §1

corn = test: Test B pre/postemergence corn; type: in vivo, Zea mays
Procedure, shortened: as §1

smallflower flatsedge = test: Test B flood test smallflower flatsedge; type: in vivo, Cyperus difformis
Procedure, shortened: as §2

bedstraw = test: Test B pre/postemergence bedstraw; type: in vivo, Galium aparine
Procedure, shortened: as §1

cocklebur = test: Test B pre/postemergence cocklebur; type: in vivo, Xanthium strumarium
Procedure, shortened: as §1

wild oat = test: Test B pre/postemergence wild oat; type: in vivo, Avena fatua
Procedure, shortened: as §1

sugar beet = test: Test B pre/postemergence sugar beet; type: in vivo, Beta vulgaris
Procedure, shortened: as §1

rape = test: Test B pre/postemergence rape; type: in vivo, Brassica napus
Procedure, shortened: as §1

surinam grass = test: Test B pre/postemergence surinam grass; type: in vivo, Brachiaria decumbens
Procedure, shortened: as §1

pigweed = test: Test B pre/postemergence pigweed; type: in vivo, Amaranthus retroflexus
Procedure, shortened: as §1

soybean = test: Test B pre/postemergence soybean; type: in vivo, Glycine max
Procedure, shortened: as §1

[1] = Postemergence, Rate 125 g/ha, scale of 0 to 10 where 0 is no effect and 10 is complete control
[2] = Preemergence, Rate 62 g/ha, scale 0 to 10 (0 no effect, 10 complete control)
[3] = Preemergence, Rate 125 g/ha, 0 is no effect, 10 is complete control
[4] = Preemergence, Rate 500 g/ha, scale 0 to 10 (0 no effect, 10 complete control)
[5] = Rate 62 g/ha, Postemergence, scale of 0 to 10 where 0 is no effect and 10 is complete control
[6] = Rate 250 g/ha, Postemergence, scale 0 to 10, 0 is no effect, 10 is complete control
[7] = Rate 500 g/ha, Postemergence, scale 0 to 10
[8] = Preemergence, Rate 250 g/ha, scale 0 to 10, 0 is no effect, 10 is complete control
[9] = Postemergence (flood test species), Rate 125 g/ha, scale of 0 to 10 where 0 is no effect and 10 is complete control
[10] = Postemergence, Rate 62 g/ha, scale 0 to 10, 0 is no effect, 10 is complete control
[11] = Rate 250 g/ha, Postemergence (flood test), scale 0 to 10, 0 is no effect, 10 is complete control
[12] = Rate 250 g/ha, headed Pre-emergence (flood test species), scale 0 to 10 (0 no effect, 10 complete control)
[13] = Rate 500 g/ha, headed Pre-emergence (flood test species), scale 0 to 10 (0 no effect, 10 complete control)

Cc1cnn(C)c1-n1c(=O)on(C(=O)N(c2ccc(F)cc2)C(C)C)c1=O [Compound 125]
Blackgrass plant response rating (blackgrass; [1]): 0 | Blackgrass plant response rating (blackgrass; [2]): 0 | Blackgrass plant response rating (0 to 10 scale) (blackgrass; [3]): 0 | Blackgrass plant response rating (blackgrass; [4]): 0 | Blackgrass plant response rating (blackgrass; [5]): 0 | Plant response rating, Blackgrass (blackgrass; [6]): 0 | Blackgrass plant response rating (blackgrass; [7]): 0 | Velvetleaf plant response rating (velvetleaf; [1]): 0 | Velvetleaf plant response rating (velvetleaf; [2]): 0 | Velvetleaf plant response rating (0 to 10 scale) (velvetleaf; [3]): 0 | Velvetleaf plant response rating (velvetleaf; [8]): 0 | Velvetleaf plant response rating (velvetleaf; [4]): 0 | Velvetleaf plant response rating (velvetleaf; [5]): 0 | Plant response rating, Velvetleaf (velvetleaf; [6]): 0 | Velvetleaf plant response rating (velvetleaf; [7]): 0 | Crabgrass plant response rating (crabgrass; [1]): 0 | Crabgrass plant response rating (crabgrass; [2]): 0 | Crabgrass plant response rating (0 to 10 scale) (crabgrass; [3]): 0 | Crabgrass plant response rating (crabgrass; [8]): 0 | Crabgrass plant response rating (crabgrass; [4]): 0 | Crabgrass plant response rating (crabgrass; [5]): 0 | Plant response rating, Crabgrass (crabgrass; [6]): 0 | Crabgrass plant response rating (crabgrass; [7]): 0 | Nutsedge plant response rating (purple nutsedge; [1]): 0 | Nutsedge plant response rating (purple nutsedge; [2]): 0 | Nutsedge plant response rating (0 to 10 scale) (purple nutsedge; [3]): 0 | Nutsedge plant response rating (purple nutsedge; [8]): 0 | Nutsedge plant response rating (purple nutsedge; [4]): 0 | Nutsedge plant response rating (purple nutsedge; [5]): 0 | Plant response rating, Nutsedge (purple nutsedge; [6]): 0 | Nutsedge plant response rating (purple nutsedge; [7]): 0 | Barnyardgrass plant response rating (bamyardgrass; [9]): 0 | Barnyardgrass plant response rating (bamyardgrass; [10]): 0 | Plant response rating, Barnyardgrass (bamyardgrass; [11]): 0 | Barnyardgrass plant response rating (bamyardgrass; [12]): 0 | Plant response rating, Barnyardgrass (bamyardgrass; [13]): 0 | Barnyardgrass plant response rating (bamyardgrass; Rate 500 g/ha, listed under Postemergence (flood test species), scale 0 to 10, 0 no effect, 10 complete control): 0 | Barnyardgrass plant response rating (bamyardgrass; Rate 1000 g/ha, Pre-emergence (as headed), scale 0 to 10): 0 | Barnyardgrass plant response rating (bamyardgrass; Rate 2000 g/ha, Pre-emergence (as headed), scale 0 to 10, 0 no effect, 10 complete control): 0 | Wheat plant response rating (wheat; [1]): 0 | Wheat plant response rating (wheat; [2]): 0 | Wheat plant response rating (0 to 10 scale) (wheat; [3]): 0 | Wheat plant response rating (wheat; [8]): 0 | Wheat plant response rating (wheat; [4]): 0 | Wheat plant response rating (wheat; [5]): 0 | Plant response rating, Wheat (wheat; [6]): 0 | Wheat plant response rating (wheat; [7]): 0 | Corn plant response rating (corn; [1]): 0 | Corn plant response rating (corn; [2]): 0 | Corn plant response rating (0 to 10 scale) (corn; [3]): 0 | Corn plant response rating (corn; [8]): 0 | Corn plant response rating (corn; [4]): 0 | Corn plant response rating (corn; [5]): 0 | Plant response rating, Corn (corn; [6]): 0 | Corn plant response rating (corn; [7]): 0 | S. Flatsedge plant response rating (smallflower flatsedge; [9]): 0 | S. Flatsedge plant response rating (smallflower flatsedge; Pre-emergence, Rate 1000 g/ha, scale 0 to 10 (0 no effect, 10 complete control)): 0 | S. Flatsedge plant response rating (smallflower flatsedge; Rate 62 g/ha, Postemergence section, flood test species, scale of 0 to 10 where 0 is no effect and 10 is complete control): 0 | Plant response rating, S. Flatsedge (smallflower flatsedge; [11]): 0 | S. Flatsedge plant response rating (smallflower flatsedge; [12]): 0 | Plant response rating, S. Flatsedge (smallflower flatsedge; [13]): 0 | S. Flatsedge plant response rating (smallflower flatsedge; Rate 500 g/ha, listed under Postemergence (flood test species), scale 0 to 10): 0 | S. Flatsedge plant response rating (smallflower flatsedge; Rate 2000 g/ha, Pre-emergence (as headed), scale 0 to 10): 0 | Bedstraw plant response rating (bedstraw; [2]): 0 | Bedstraw plant response rating (0 to 10 scale) (bedstraw; [3]): 0 | Bedstraw plant response rating (bedstraw; [8]): 0 | Bedstraw plant response rating (bedstraw; [4]): 0 | Bedstraw plant response rating (bedstraw; Rate 500 g/ha, Postemergence, scale 0 to 10, 0 no effect, 10 complete control): 0 | Cocklebur plant response rating (cocklebur; [1]): 0 | Cocklebur plant response rating (cocklebur; [2]): 0 | Cocklebur plant response rating (0 to 10 scale) (cocklebur; [3]): 0 | Cocklebur plant response rating (cocklebur; [8]): 0 | Cocklebur plant response rating (cocklebur; [4]): 0 | Cocklebur plant response rating (cocklebur; [5]): 0 | Plant response rating, Cocklebur (cocklebur; [6]): 0 | Cocklebur plant response rating (cocklebur; [7]): 0 | Wild oats plant response rating (wild oat; [1]): 0 | Wild oats plant response rating (wild oat; [2]): 0 | Wild oats plant response rating (0 to 10 scale) (wild oat; [3]): 0 | Wild oats plant response rating (wild oat; [8]): 0 | Wild oats plant response rating (wild oat; [4]): 0 | Wild oats plant response rating (wild oat; [5]): 0 | Plant response rating, Wild oats (wild oat; [6]): 0 | Wild oats plant response rating (wild oat; [7]): 0 | Sugarbeets plant response rating (sugar beet; [1]): 0 | Sugarbeets plant response rating (sugar beet; [2]): 0 | Sugarbeets plant response rating (0 to 10 scale) (sugar beet; [3]): 0 | Sugarbeets plant response rating (sugar beet; [8]): 0 | Sugarbeets plant response rating (sugar beet; [4]): 0 | Sugarbeets plant response rating (sugar beet; [5]): 0 | Plant response rating, Sugarbeets (sugar beet; [6]): 0 | Sugarbeets plant response rating (sugar beet; [7]): 0 | Rape plant response rating (rape; [1]): 0 | Rape plant response rating (rape; [2]): 0 | Rape plant response rating (0 to 10 scale) (rape; [3]): 0 | Rape plant response rating (rape; [8]): 0 | Rape plant response rating (rape; [4]): 0 | Rape plant response rating (rape; [5]): 0 | Plant response rating, Rape (rape; [6]): 0 | Rape plant response rating (rape; [7]): 0 | B. signalgrass plant response rating (surinam grass; [10]): 0 | B. signalgrass plant response rating (surinam grass; [1]): 0 | B. signalgrass plant response rating (surinam grass; [2]): 0 | B. signalgrass plant response rating (0 to 10 scale) (surinam grass; [3]): 0 | B. signalgrass plant response rating (surinam grass; [8]): 0 | B. signalgrass plant response rating (surinam grass; [4]): 0 | Plant response rating, B. signalgrass (surinam grass; [6]): 0 | B. signalgrass plant response rating (surinam grass; Rate 500 g/ha, Postemergence, scale of 0 to 10 where 0 is no effect and 10 is complete control): 0 | Redroot pigweed plant response rating (pigweed; [1]): 0 | Redroot pigweed plant response rating (pigweed; [2]): 0 | Redroot pigweed plant response rating (0 to 10 scale) (pigweed; [3]): 0 | Redroot pigweed plant response rating (pigweed; [8]): 0 | Redroot pigweed plant response rating (pigweed; [4]): 0 | Redroot pigweed plant response rating (pigweed; [5]): 0 | Plant response rating, Redroot pigweed (pigweed; [6]): 0 | Redroot pigweed plant response rating (pigweed; [7]): 0 | Soybean plant response rating (soybean; [1]): 4 | Soybean plant response rating (soybean; [2]): 0 | Soybean plant response rating (0 to 10 scale) (soybean; [3]): 0 | Soybean plant response rating (soybean; [8]): 0 | Soybean plant response rating (soybean; [4]): 0 | Soybean plant response rating (soybean; [5]): 0 | Plant response rating, Soybean (soybean; [6]): 4 | Soybean plant response rating (soybean; [7]): 4
